Source: patent publication US6946458B2, “N-thiolated beta-lactams: novel antibacterial agents for methicillin-resistant Staphylococcus aureus” (University of South Florida, priority 1999, dated 2005)

Experiments:
Assay type in all cases: cell-based, Staphylococcus aureus
[1] = test system: Staphylococcus strains including MRSA; experiment: antibacterial activity screening, results stated in words
Source text: However, the N-alkylthio substituent is required, since reduction to the N—H analogue completely destroys the biological activity. […]
(§1) Of particular interest is the ability of these compounds to retain their effectiveness against penicillin-resistant strains of Staphylococcus aureus, a dangerous hospital-borne pathogen which is becoming difficult to treat with conventional antibiotic therapy. The lactams were screened for antibacterial activity by disk diffusion on agar plates, and the resulting zones of bacterial growth inhibition measured (see Table 3; each lactam is designated by Figure number).
With the lactam of FIG. 6A serving as a lead structure, other C4-unsaturated derivatives (FIGS. 6B-6E) and C4-saturated analogues (FIGS. 6F-6H), were examined all of which also have activity against Staphylococcus strains including MRSA.
(§2) Scheme I summarizes the synthesis of ester compounds 4. 4-Carboxy benzaldehyde (1) is coupled with the appropriate alcohol using DCC/DMAP, followed by reaction with p-anisidine, to give imines 2. Staudinger coupling of methoxyacetyl chloride with imine 2 gives N-aryl protected β-lactam 3. N-Dearylation of β-lactam 3 with ceric ammonium nitrate and methylthiolation with N-(methylthio)phthalimide affords N-methylthio β-lactams 4. These compounds are tested for antibacterial activity by the Kirby-Bauer method of disc diffusion on agar plates. [drawing 7]

MRSA USF658 = experiment: Kirby-Bauer agar disk diffusion; set-up: Kirby-Bauer Disc Diffusion Test Results: unit not given here; conditions: for The Zone of Inhibition: Table 6; for Kirby-Bauer Disc Diffusion Test Results: Table 5, beta-lactamase producing strain
Method: (§3) In this study, a selection of N-methylthio-substituted β-lactams are examined for antimicrobial activity by the Kirby-Bauer disk diffusion method on agar plates. A variety of common Gram-positive and Gram-negative bacteria are tested, including clinical isolates of methicillin-resistant Staphylococcus aureus (MRSA).
(§4) Compound susceptibility measurements are obtained from agar disk diffusion experiments using 6-mm air-dried disks impregnated with 20 μg of the test compound. The values correspond to the average diameters in mm (triplicate experiments) for the zone of growth inhibition observed after 24 h. Staphylococcus aureus (ATCC 25923) and β-lactamase-producing strains of methicillin-resistant Staphylococcus aureus (labeled as MRSA USF652-659) are obtained from Lakeland Regional Medical Center, Lakeland, Fla. Staphylococcus epidermidis, Staphylococcus simulans, Staphylococcus simulans, and Microcossus luteus are clinical isolates from University of South Florida Medical Clinic. Nieserria gonnorhoeae (β-lactamase positive) is obtained from the Tampa Branch State Laboratory. PenG is penicillin G (potassium salt). Table 1 provides the zones of growth inhibition that are observed after 24 hours using the lactams of FIGS. 1A-1I (designated A-I, respectively).
as §1
(§5) Table 3: Growth inhibition zones obtained from agar disk diffusion experiments using 6-mm air-dried disks impregnated with 20 μg of the test compound. The values correspond to the average diameters in mm for the zone of growth inhibition observed after 24 hours. Staphylococcus aureus and β-lactamase-producing strains of methicillin-resistant Staphylococcus aureus (labeled MRSA USF652-659) are obtained from a clinical testing laboratory at Lakeland Regional Medical Center, Lakeland, Fla.
(§6) Those compounds were tested for bioactivity using the Kirby-Bauer test on agar plates.
(§7) Biological activity is enhanced against β-lactamase producing strains of methicillin-resistant Staphylococcus aureus (MRSA). With the lactam shown in FIG. 11A serving as a lead structure, a series of other C-4 substituted derivatives (FIGS. 11B-11I) were investigated herein. Table 5 lists microbiological data for β-lactams from Kirby-Bauer Disc Diffusion Test Results (with each lactam identified by Figure number).
as §2

MRSA USF652 = experiment: Kirby-Bauer agar disk diffusion; set-up: Kirby-Bauer Disc Diffusion Test Results: unit not given here; conditions: for The Zone of Inhibition: Table 6; for Kirby-Bauer Disc Diffusion Test Results: Table 5, beta-lactamase producing strain
Method: as §3, §4, §1, §5, §6, §7, §2

MRSA USF656 = experiment: Kirby-Bauer agar disk diffusion; set-up: Kirby-Bauer Disc Diffusion Test Results: unit not given here; conditions: for The Zone of Inhibition: Table 6; for Kirby-Bauer Disc Diffusion Test Results: Table 5, beta-lactamase producing strain
Method: as §3, §4, §1, §5, §6, §7, §2

MRSA USF655 = experiment: Kirby-Bauer agar disk diffusion; set-up: Kirby-Bauer Disc Diffusion Test Results: unit not given here; conditions: for The Zone of Inhibition: Table 6; for Kirby-Bauer Disc Diffusion Test Results: Table 5
Method: as §3, §4, §1, §5, §6, §7, §2

MRSA USF657 = experiment: Kirby-Bauer agar disk diffusion; set-up: Kirby-Bauer Disc Diffusion Test Results: unit not given here; conditions: for The Zone of Inhibition: Table 6; for Kirby-Bauer Disc Diffusion Test Results: Table 5, beta-lactamase producing strain
Method: as §3, §4, §1, §5, §6, §7, §2

MRSA USF653 = experiment: Kirby-Bauer agar disk diffusion; set-up: Kirby-Bauer Disc Diffusion Test Results: unit not given here; conditions: for The Zone of Inhibition: Table 6; for Kirby-Bauer Disc Diffusion Test Results: Table 5, beta-lactamase producing strain
Method: as §3, §4, §1, §5, §6, §7, §2

MRSA USF659 = experiment: Kirby-Bauer agar disk diffusion; set-up: Kirby-Bauer Disc Diffusion Test Results: unit not given here; conditions: for The Zone of Inhibition: Table 6; for Kirby-Bauer Disc Diffusion Test Results: Table 5, beta-lactamase producing strain
Method: as §3, §4, §1, §5, §6, §7, §2

MRSA USF654 = experiment: Kirby-Bauer agar disk diffusion; set-up: Kirby-Bauer Disc Diffusion Test Results: unit not given here; conditions: for The Zone of Inhibition: Table 6; for Kirby-Bauer Disc Diffusion Test Results: Table 5, beta-lactamase producing strain
Method: as §3, §4, §1, §5, §6, §7, §2

Staph aureus 525 = experiment: Kirby-Bauer agar disk diffusion; conditions: for Kirby-Bauer Disc Diffusion Test Results: Table 5
[2] = Example 6, MRSA strains of Table 6

Row | SMILES | antibacterial activity, in words ([1]; Example 3 SAR) | Kirby-Bauer Disc Diffusion Test Results (MRSA USF658) | Kirby-Bauer Disc Diffusion Test Results (MRSA USF652) | Kirby-Bauer Disc Diffusion Test Results (MRSA USF656) | Kirby-Bauer Disc Diffusion Test Results (MRSA USF655) | Kirby-Bauer Disc Diffusion Test Results (MRSA USF657) | Kirby-Bauer Disc Diffusion Test Results (MRSA USF653) | Kirby-Bauer Disc Diffusion Test Results (MRSA USF659) | Kirby-Bauer Disc Diffusion Test Results (MRSA USF654) | Kirby-Bauer Disc Diffusion Test Results (Staph aureus 525) | further results
1 | COC1C(=O)N(SC)C1C(C#Cc1ccccc1)OC(C)=O (mixture of isomers) [FIG. 6I] | devoid of activity | – | – | – | – | – | – | – | – | – | –
2 | COC(=O)c1ccc(C2C(OC)C(=O)N2SC)cc1 (racemic) [4a] | – | – | – | – | – | – | – | – | – | – | The Zone of Inhibition (MRSA USF658; 20 μg disk loading): 9 mm; The Zone of Inhibition (MRSA USF652; 20 μg disk loading): 12 mm; The Zone of Inhibition (MRSA USF656; 20 μg disk loading): 11 mm; The Zone of Inhibition (MRSA USF655; 20 μg disk loading): 14 mm; The Zone of Inhibition (MRSA USF657; 20 μg disk loading): 12 mm; The Zone of Inhibition (MRSA USF653; 20 μg disk loading): 14 mm; The Zone of Inhibition (MRSA USF659; 20 μg disk loading): 13 mm; The Zone of Inhibition (MRSA USF654; 20 μg disk loading): 8 mm; antibacterial activity, in words [1, 2]: about similar activity
3 | CCOC(=O)c1ccc(C2C(OC)C(=O)N2SC)cc1 (racemic) [4b] | – | – | – | – | – | – | – | – | – | – | The Zone of Inhibition (MRSA USF658; 20 μg disk loading): 11 mm; The Zone of Inhibition (MRSA USF652; 20 μg disk loading): 17 mm; The Zone of Inhibition (MRSA USF656; 20 μg disk loading): 11 mm; The Zone of Inhibition (MRSA USF655; 20 μg disk loading): 12 mm; The Zone of Inhibition (MRSA USF657; 20 μg disk loading): 14 mm; The Zone of Inhibition (MRSA USF653; 20 μg disk loading): 14 mm; The Zone of Inhibition (MRSA USF659; 20 μg disk loading): 13 mm; The Zone of Inhibition (MRSA USF654; 20 μg disk loading): 9 mm; antibacterial activity, in words [1, 2]: about similar activity
4 | CCCCCOC(=O)c1ccc(C2C(OC)C(=O)N2SC)cc1 (racemic) [4c] | – | – | – | – | – | – | – | – | – | – | The Zone of Inhibition (MRSA USF658; 20 μg disk loading): 12 mm; The Zone of Inhibition (MRSA USF652; 20 μg disk loading): 17 mm; The Zone of Inhibition (MRSA USF656; 20 μg disk loading): 14 mm; The Zone of Inhibition (MRSA USF655; 20 μg disk loading): 13 mm; The Zone of Inhibition (MRSA USF657; 20 μg disk loading): 14 mm; The Zone of Inhibition (MRSA USF653; 20 μg disk loading): 13 mm; The Zone of Inhibition (MRSA USF659; 20 μg disk loading): 12 mm; The Zone of Inhibition (MRSA USF654; 20 μg disk loading): 11 mm; antibacterial activity, in words [1, 2]: about similar activity
5 | CCCCCCCCCCOC(=O)c1ccc(C2C(OC)C(=O)N2SC)cc1 (racemic) [4e] | – | – | – | – | – | – | – | – | – | – | The Zone of Inhibition (MRSA USF658; 20 μg disk loading): 0 mm; The Zone of Inhibition (MRSA USF652; 20 μg disk loading): 0 mm; The Zone of Inhibition (MRSA USF656; 20 μg disk loading): 0 mm; The Zone of Inhibition (MRSA USF655; 20 μg disk loading): 0 mm; The Zone of Inhibition (MRSA USF657; 20 μg disk loading): 0 mm; The Zone of Inhibition (MRSA USF653; 20 μg disk loading): 0 mm; The Zone of Inhibition (MRSA USF659; 20 μg disk loading): 0 mm; The Zone of Inhibition (MRSA USF654; 20 μg disk loading): 0 mm; antibacterial activity, in words [1, 2]: no activity
6 | COC1C(=O)N(SC)C1C#Cc1ccccc1 (racemic) [FIG. 6A] | inhibits the in vitro growth | – | – | – | – | – | – | – | – | – | –
7 | COC1C(=O)N(SC)C1c1ccccc1 (racemic) [FIG. 6J] | highly active | – | – | – | – | – | – | – | – | – | –
8 | COC1C(=O)N(SC)C1c1ccccc1Cl (racemic) [FIG. 7A] | most active analogue | – | – | – | – | – | – | – | – | – | –
9 | COC(=O)c1ccc(C2C(OC)C(=O)N2SC)cc1 (racemic) [FIG. 7J] | showing antibacterial activity | – | – | – | – | – | – | – | – | – | –
10 | CCCCCOC(=O)c1ccc(C2C(OC)C(=O)N2SC)cc1 (racemic) [FIG. 8C] | activity is maintained | – | – | – | – | – | – | – | – | – | –
11 | CCCCCCCOC(=O)c1ccc(C2C(OC)C(=O)N2SC)cc1 (racemic) [FIG. 8D] | about half the activity of the pentyl analogues | – | – | – | – | – | – | – | – | – | –
12 | CCCCCCCCCCOC(=O)c1ccc(C2C(OC)C(=O)N2SC)cc1 (racemic) [FIG. 8E] | totally devoid of activity | – | – | – | – | – | – | – | – | – | –
13 | COC1C(=O)N(SC)C1C#Cc1ccccc1 (racemic) [FIG. 11A] | – | 27 | 29 | 30 | 27 | 28 | 29 | 24 | 27 | 27 | –
14 | COC1C(=O)N(SC)C1c1ccccc1 (racemic) [FIG. 11B] | – | 27 | 30 | 28 | 26 | 28 | 30 | 24 | 26 | 25 | –
15 | COC1C(=O)N(SC)C1c1cccc([N+](=O)[O-])c1 (racemic) [FIG. 11C] | – | 17 | 17 | 18 | 14 | 18 | 22 | 11 | 16 | 15 | –
16 | COC1C(=O)N(SC)C1c1ccc(C#N)cc1 (racemic) [FIG. 11D] | – | 12 | 14 | 13 | 12 | 10 | 16 | 12 | 0 | 14 | –
17 | COC1C(=O)N(SC)C1c1cccs1 (racemic) [FIG. 11E] | – | 26 | 28 | 28 | 29 | 26 | 28 | 24 | 27 | 27 | –
18 | COC1C(=O)N(SC)C1c1cccc(Cl)c1 (racemic) [FIG. 11G] | – | 22 | 26 | 26 | 23 | 25 | 28 | 15 | 21 | 24 | –
19 | COC1C(=O)N(SC)C1c1ccc(Cl)cc1 (racemic) [FIG. 11H] | – | 20 | 24 | 22 | 23 | 22 | 28 | 18 | 23 | 24 | –
20 | COC1C(=O)N(SC)C1c1c(Cl)cccc1Cl (racemic) [FIG. 11I] | – | 20 | 24 | 22 | 20 | 20 | 26 | 17 | 21 | 24 | –
21 | COC1C(=O)N(SC)C1c1ccccc1Cl (racemic) [Methyl-thio] | – | – | – | – | – | – | – | – | – | – | Zones of Inhibition (MRSA USF658; Table 4, 20 μg disk loading): 26 mm; Zones of Inhibition (MRSA USF652; Table 4, 20 μg disk loading): 30 mm; Zones of Inhibition (MRSA USF656; Table 4, 20 μg disk loading): 28 mm; Zones of Inhibition (MRSA USF655; Table 4, 20 μg disk loading): 26 mm; Zones of Inhibition (MRSA USF657; Table 4, 20 μg disk loading): 27 mm; Zones of Inhibition (MRSA USF653; Table 4, 20 μg disk loading): 29 mm; Zones of Inhibition (MRSA USF659; Table 4, 20 μg disk loading): 23 mm; Zones of Inhibition (MRSA USF654; Table 4, 20 μg disk loading): 26 mm; Zones of Inhibition (Staph aureus 525; Table 4, 20 μg disk loading): 26 mm
